Counter-ions that a name gives are not always drawn. Like-named read-outs stand apart in the source and are kept apart here.
Assays:
[1] = tested on: morphine induced cAMP overshoot; experiment: Inhibition of morphine-induced cAMP overshoot, qHTS of LOPAC library; format: cell-based
[2] = tested on: HEK-MOR cells; experiment: Assay performance in 1536-well plate format; format: cell-based; conditions: mean ± SD from 288 wells

SMILES	IC50 ([1]; 18 h, read-out: Potency) [µM]	other results
CCCCCCCCCCCCCCCCCC(=O)NCC(COP(=O)([O-])OCC[N+](C)(C)C)OCC (racemic) [rac-2-Ethoxy-3-octadecanamido-1-propylphosphocholine]	18.4	
Oc1ccc2c3c1O[C@H]1c4[nH]c5ccccc5c4C[C@@]4(O)[C@@H](C2)N(CC2CC2)CC[C@]314 [Naltrindole hydrochloride]	0.82	IC50 ([1]; read-out: IC50): 0.81 µM
C=CCN1CC[C@]23c4c5ccc(O)c4O[C@H]2/C(=N/NC(=O)c2ccccc2)CC[C@@]3(O)[C@H]1C5 [Naloxone benzoylhydrazone]	0.41	
C[C@@]12C(=O)OC(=O)[C@]1(C)[C@H]1CC[C@@H]2O1 [Cantharidin]	13	
CC1(C(=O)O)C2CCC(O2)C1(C)C(=O)O (centres unmarked) [Cantharidic Acid]	14.6	
CCC(=O)c1ccc2c(c1)N(CCCN(C)C)c1ccccc1S2 [Propionylpromazine hydrochloride]	16.4	
CN1CC[C@]23c4c5ccc(O)c4O[C@H]2[C@@H](O)C=C[C@H]3[C@H]1C5 [Morphine, morphine sulfate pentahydrate]		ratio (665nm/620nm), morphine treatment ([2]; NKH 477 10 nM): 1.63 ± 0.13; ratio (665nm/620nm), morphine treatment ([2]; NKH 477 25 nM): 1.08 ± 0.05; ratio (665nm/620nm), morphine treatment ([2]; NKH 477 50 nM): 0.88 ± 0.04
Oc1ccc2c3c1O[C@H]1c4oc5ccccc5c4C[C@@]4(O)[C@@H](C2)N(CC2CC2)CC[C@]314 [Naltriben methanesulfonate]	2.31	
C=CCN1CC[C@]23CCCC[C@H]2[C@H]1Cc1ccc(O)cc13 [Levallorphan tartrate]	0.33	IC50 ([1]; read-out: IC50): 0.32 µM
CCCN(CCC)CCc1cccc2c1CC(=O)N2 [Ropinirole hydrochloride]	18.4	
C=C1C(=O)O[C@H]2[C@H]1CC/C(C)=C/CC[C@@]1(C)O[C@@H]21 [Parthenolide]	16.4	
O=C1CC[C@@]2(O)[C@H]3Cc4ccc(O)c5c4[C@@]2(CCN3CC2CC2)[C@H]1O5 [Naltrexone hydrochloride]	0.12	IC50 ([1]; read-out: IC50): 0.11 µM

— PMC3146558 (Cellular and molecular neurobiology, 2011)
